Source: ChEMBL document CHEMBL1240381, “Spread of a chromosomal cefixime-resistant penA gene among different Neisseria gonorrhoeae lineages” (2010)
Values after ≈ are worked out from the molar mass of the structure shown.

Assays:
Assay type in all cases: functional
Neisseria gonorrhoeae [1] = assay: Antimicrobial activity against Neisseria gonorrhoeae isolate NGON03-092 expressing chromosomal cefixime-resistant penA gene by agar dilution method
Neisseria gonorrhoeae [2] = assay: Antimicrobial activity against Neisseria gonorrhoeae isolate NGON07-002 expressing chromosomal cefixime-resistant penA gene by agar dilution method
Neisseria gonorrhoeae [3] = assay: Antimicrobial activity against Neisseria gonorrhoeae isolate NG0201 expressing chromosomal cefixime-resistant penA gene by agar dilution method
Neisseria gonorrhoeae [4] = assay: Antimicrobial activity against Neisseria gonorrhoeae isolate NG0202 expressing chromosomal cefixime-resistant penA gene at 0.031 ug/ml after 16 hrs
Neisseria gonorrhoeae [5] = assay: Antimicrobial activity against Neisseria gonorrhoeae isolate NG0404 expressing chromosomal cefixime-resistant penA gene by agar dilution method
Neisseria gonorrhoeae [6] = assay: Antimicrobial activity against Neisseria gonorrhoeae isolate NG0110 expressing chromosomal cefixime-resistant penA gene by agar dilution method
Neisseria gonorrhoeae [7] = assay: Antimicrobial activity against Neisseria gonorrhoeae isolate NG0303 expressing chromosomal cefixime-resistant penA gene by agar dilution method
Neisseria gonorrhoeae [8] = assay: Antimicrobial activity against Neisseria gonorrhoeae isolate NG9911 expressing chromosomal cefixime-resistant penA gene by agar dilution method
Neisseria gonorrhoeae [9] = assay: Antimicrobial activity against Neisseria gonorrhoeae isolate NG0202 expressing chromosomal cefixime-resistant penA gene by agar dilution method
Neisseria gonorrhoeae [10] = assay: Antimicrobial activity against Neisseria gonorrhoeae isolate NG0312 expressing chromosomal cefixime-resistant penA gene by agar dilution method
Neisseria gonorrhoeae [11] = assay: Antimicrobial activity against Neisseria gonorrhoeae isolate NG0512 expressing chromosomal cefixime-resistant penA gene by agar dilution method
Neisseria gonorrhoeae [12] = assay: Antimicrobial activity against Neisseria gonorrhoeae isolate NG0514 expressing chromosomal cefixime-resistant penA gene by agar dilution method
Neisseria gonorrhoeae [13] = assay: Antimicrobial activity against Neisseria gonorrhoeae isolate NG0503 expressing chromosomal cefixime-resistant penA gene by agar dilution method
Neisseria gonorrhoeae [14] = assay: Antimicrobial activity against Neisseria gonorrhoeae isolate NG9912 expressing chromosomal cefixime-resistant penA gene by agar dilution method
Neisseria gonorrhoeae [15] = assay: Antimicrobial activity against Neisseria gonorrhoeae isolate NG0111 expressing chromosomal cefixime-resistant penA gene by agar dilution method
Neisseria gonorrhoeae [16] = assay: Antimicrobial activity against Neisseria gonorrhoeae isolate NG9811 expressing chromosomal cefixime-resistant penA gene by agar dilution method
Neisseria gonorrhoeae [17] = assay: Antimicrobial activity against Neisseria gonorrhoeae isolate NG0402 expressing chromosomal cefixime-resistant penA gene by agar dilution method
Neisseria gonorrhoeae [18] = assay: Antimicrobial activity against Neisseria gonorrhoeae isolate NG0204 expressing chromosomal cefixime-resistant penA gene by agar dilution method
Neisseria gonorrhoeae [19] = assay: Antimicrobial activity against Neisseria gonorrhoeae isolate NG0508 expressing chromosomal cefixime-resistant penA gene by agar dilution method
Neisseria gonorrhoeae [20] = assay: Antimicrobial activity against Neisseria gonorrhoeae isolate NG0205 expressing chromosomal cefixime-resistant penA gene by agar dilution method
Neisseria gonorrhoeae [21] = assay: Antimicrobial activity against Neisseria gonorrhoeae isolate NG0207 expressing chromosomal cefixime-resistant penA gene by agar dilution method
Neisseria gonorrhoeae [22] = assay: Antimicrobial activity against Neisseria gonorrhoeae isolate NG0513 expressing chromosomal cefixime-resistant penA gene by agar dilution method
Neisseria gonorrhoeae [23] = assay: Antimicrobial activity against Neisseria gonorrhoeae isolate NG0008 expressing chromosomal cefixime-resistant penA gene by agar dilution method
Neisseria gonorrhoeae [24] = assay: Antimicrobial activity against Neisseria gonorrhoeae isolate NG0401 expressing chromosomal cefixime-resistant penA gene by agar dilution method
Neisseria gonorrhoeae [25] = assay: Antimicrobial activity against Neisseria gonorrhoeae isolate NG0511 expressing chromosomal cefixime-resistant penA gene by agar dilution method
Neisseria gonorrhoeae [26] = assay: Antimicrobial activity against Neisseria gonorrhoeae isolate NG0003 expressing chromosomal cefixime-resistant penA gene by agar dilution method
Neisseria gonorrhoeae [27] = assay: Antimicrobial activity against Neisseria gonorrhoeae isolate NG0509 expressing chromosomal cefixime-resistant penA gene by agar dilution method
Neisseria gonorrhoeae [28] = assay: Antimicrobial activity against Neisseria gonorrhoeae isolate NG0003 expressing chromosomal cefixime-resistant penA gene at […] after 16 hrs
Neisseria gonorrhoeae [29] = assay: Antimicrobial activity against Neisseria gonorrhoeae isolate NG0002 expressing chromosomal cefixime-resistant penA gene by agar dilution method
Neisseria gonorrhoeae [30] = assay: Antimicrobial activity against Neisseria gonorrhoeae isolate NG9913 expressing chromosomal cefixime-resistant penA gene by agar dilution method
Neisseria gonorrhoeae [31] = assay: Antimicrobial activity against Neisseria gonorrhoeae isolate NGON03-079 expressing chromosomal cefixime-resistant penA gene by agar dilution method
Neisseria gonorrhoeae [32] = assay: Antimicrobial activity against Neisseria gonorrhoeae isolate NG0206 expressing chromosomal cefixime-resistant penA gene by agar dilution method
Neisseria gonorrhoeae [33] = assay: Antimicrobial activity against Neisseria gonorrhoeae isolate NG0410 expressing chromosomal cefixime-resistant penA gene by agar dilution method
Neisseria gonorrhoeae [34] = assay: Antimicrobial activity against Neisseria gonorrhoeae isolate NG9806 expressing chromosomal cefixime-resistant penA gene by agar dilution method
Neisseria gonorrhoeae [35] = assay: Antimicrobial activity against Neisseria gonorrhoeae isolate NG9914 expressing chromosomal cefixime-resistant penA gene by agar dilution method
Neisseria gonorrhoeae [36] = assay: Antimicrobial activity against Neisseria gonorrhoeae isolate NG0304 expressing chromosomal cefixime-resistant penA gene by agar dilution method
Neisseria gonorrhoeae [37] = assay: Antimicrobial activity against Neisseria gonorrhoeae isolate NGON03-115 expressing chromosomal cefixime-resistant penA gene by agar dilution method
Neisseria gonorrhoeae [38] = assay: Antimicrobial activity against Neisseria gonorrhoeae isolate NG0311 expressing chromosomal cefixime-resistant penA gene by agar dilution method
Neisseria gonorrhoeae [39] = assay: Antimicrobial activity against Neisseria gonorrhoeae isolate NG0109 expressing chromosomal cefixime-resistant penA gene by agar dilution method
Neisseria gonorrhoeae [40] = assay: Antimicrobial activity against Neisseria gonorrhoeae isolate NG9812 expressing chromosomal cefixime-resistant penA gene by agar dilution method
Neisseria gonorrhoeae [41] = assay: Antimicrobial activity against Neisseria gonorrhoeae isolate NG0202 expressing chromosomal cefixime-resistant penA gene at 2 ug/ml after 16 hrs
Neisseria gonorrhoeae [42] = assay: Antimicrobial activity against Neisseria gonorrhoeae isolate NG0003 expressing chromosomal cefixime-resistant penA gene at 2 ug/ml after 16 hrs

`C=CC1=C(C(=O)O)N2C(=O)[C@@H](NC(=O)/C(=N\OCC(=O)O)c3csc(N)n3)[C@H]2SC1` [CEFIXIME] showed an MIC (Neisseria gonorrhoeae [1]) of 0.25 µg/mL (≈ 0.551 µM), an MIC (Neisseria gonorrhoeae [2]) of 0.25 µg/mL (≈ 0.551 µM) and an MIC (Neisseria gonorrhoeae [3]) of 0.25 µg/mL (≈ 0.551 µM). It also gave a CFU (Neisseria gonorrhoeae [4]) of less than 10 mL⁻¹, an MIC (Neisseria gonorrhoeae [5]) of 0.5 µg/mL (≈ 1.1 µM) and an MIC (Neisseria gonorrhoeae [6]) of 0.25 µg/mL (≈ 0.551 µM). For the same molecule, the MIC (Neisseria gonorrhoeae [7]) was 0.25 µg/mL (≈ 0.551 µM), the MIC (Neisseria gonorrhoeae [8]) was 0.25 µg/mL (≈ 0.551 µM) and the MIC (Neisseria gonorrhoeae [9]) was 0.004 µg/mL (≈ 0.00882 µM). The MIC (Neisseria gonorrhoeae [10]) was 0.5 µg/mL (≈ 1.1 µM), the MIC (Neisseria gonorrhoeae [11]) was 0.25 µg/mL (≈ 0.551 µM) and the MIC (Neisseria gonorrhoeae [12]) was 0.25 µg/mL (≈ 0.551 µM). It also gave an MIC (Neisseria gonorrhoeae [13]) of 0.25 µg/mL (≈ 0.551 µM), an MIC (Neisseria gonorrhoeae [14]) of 0.25 µg/mL (≈ 0.551 µM) and an MIC (Neisseria gonorrhoeae [15]) of 0.25 µg/mL (≈ 0.551 µM). For the same molecule, the MIC (Neisseria gonorrhoeae [16]) was 0.25 µg/mL (≈ 0.551 µM), the MIC (Neisseria gonorrhoeae [17]) was 0.031 µg/mL (≈ 0.0684 µM) and the MIC (Neisseria gonorrhoeae [18]) was 0.25 µg/mL (≈ 0.551 µM). For the same molecule, the MIC (Neisseria gonorrhoeae [19]) was 0.25 µg/mL (≈ 0.551 µM), the MIC (Neisseria gonorrhoeae [20]) was 0.25 µg/mL (≈ 0.551 µM) and the MIC (Neisseria gonorrhoeae [21]) was 0.25 µg/mL (≈ 0.551 µM). It also gave an MIC (Neisseria gonorrhoeae [22]) of 0.5 µg/mL (≈ 1.1 µM), an MIC (Neisseria gonorrhoeae [23]) of 0.25 µg/mL (≈ 0.551 µM) and an MIC (Neisseria gonorrhoeae [24]) of 0.5 µg/mL (≈ 1.1 µM). It also gave an MIC (Neisseria gonorrhoeae [25]) of 0.25 µg/mL (≈ 0.551 µM), an MIC (Neisseria gonorrhoeae [26]) of 0.25 µg/mL (≈ 0.551 µM) and an MIC (Neisseria gonorrhoeae [27]) of 0.25 µg/mL (≈ 0.551 µM). The CFU (Neisseria gonorrhoeae [28]) was 1.01 ×10⁸ /ml, the MIC (Neisseria gonorrhoeae [29]) was 0.25 µg/mL (≈ 0.551 µM) and the MIC (Neisseria gonorrhoeae [30]) was 0.25 µg/mL (≈ 0.551 µM). For the same molecule, the MIC (Neisseria gonorrhoeae [31]) was 0.5 µg/mL (≈ 1.1 µM), the MIC (Neisseria gonorrhoeae [32]) was 0.25 µg/mL (≈ 0.551 µM) and the MIC (Neisseria gonorrhoeae [33]) was 0.5 µg/mL (≈ 1.1 µM). It also gave an MIC (Neisseria gonorrhoeae [34]) of 0.25 µg/mL (≈ 0.551 µM), an MIC (Neisseria gonorrhoeae [35]) of 0.25 µg/mL (≈ 0.551 µM) and an MIC (Neisseria gonorrhoeae [36]) of 1 µg/mL (≈ 2.21 µM). The MIC (Neisseria gonorrhoeae [37]) was 0.5 µg/mL (≈ 1.1 µM), the MIC (Neisseria gonorrhoeae [38]) was 0.5 µg/mL (≈ 1.1 µM) and the MIC (Neisseria gonorrhoeae [39]) was 0.25 µg/mL (≈ 0.551 µM). It also gave an MIC (Neisseria gonorrhoeae [40]) of 0.25 µg/mL (≈ 0.551 µM).
`O=C(O)c1cn(C2CC2)c2cc(N3CCNCC3)c(F)cc2c1=O` [CIPROFLOXACIN] gave an MIC (Neisseria gonorrhoeae [9]) of 8 µg/mL (≈ 24.1 µM), a CFU (Neisseria gonorrhoeae [41]) of 0.71 ×10⁸ /ml and an MIC (Neisseria gonorrhoeae [26]) of 0.031 µg/mL (≈ 0.0936 µM). For the same molecule, the CFU (Neisseria gonorrhoeae [42]) was less than 10 mL⁻¹.
